According to patent publication US8420657B2 (Novartis AG, priority 2008, dated 2013):

Tests used:
[1] = tested on: JAK2-dependent nuclear translocation of STAT5-GFP in U-2 OS osteosarcoma cells; assay: STAT5 nuclear translocation assay (Cellomics), rhEpo stimulated U-2 OS STAT5-GFP cells; type: cell-based; conditions: Homo sapiens, U2OS; STAT5 translocation pathway
How it was run: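 U-2 OS cells stably expressing STAT5a-GFP and EpoR pre-treated with compound (final 10 μM to 0.003 μM, 0.1% DMSO) for 30 min at 37° C., then stimulated 1 h with 5 U/ml rhEpo. Nuclear-cytoplasmic GFP differential quantified by automated imaging (≥1000 cells/well, Hoechst nuclear mask). IC50 from % translocation normalized to untreated and DMSO-stimulated controls.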

[2] = target: T1, GST-JAK2(808-1132) (Homo sapiens, UniProt O60674); assay: JAK2 kinase assay (Caliper mobility shift, LabChip 3000); type: biochemical
T1 construct: GST-JAK2(808-1132); purchased Invitrogen (Carlsbad, USA) #4288
T1 sequence (O60674 808-1132): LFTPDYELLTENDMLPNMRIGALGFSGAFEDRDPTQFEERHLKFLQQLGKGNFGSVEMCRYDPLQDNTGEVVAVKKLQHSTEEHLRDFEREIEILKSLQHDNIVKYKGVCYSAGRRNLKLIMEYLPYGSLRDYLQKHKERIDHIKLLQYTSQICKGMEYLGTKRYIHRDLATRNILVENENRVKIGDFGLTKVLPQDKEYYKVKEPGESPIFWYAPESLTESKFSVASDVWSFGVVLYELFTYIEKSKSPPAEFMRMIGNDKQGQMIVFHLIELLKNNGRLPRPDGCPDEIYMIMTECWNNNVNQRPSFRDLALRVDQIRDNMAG
How it was run: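 Recombinant GST-JAK2(808-1132) kinase domain with FITC-labelled JAK3tide peptide substrate and ATP; 60 min at 30 °C, EDTA stop. Substrate/product ratio read by microfluidic mobility shift; compounds at 8 final concentrations, 10 to 0.003 μM.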

IC50 [1] [nM] | IC50 [2] [nM] | Structure (SMILES)
38 | 4.3 | C[C@@H]1CN(C(=O)c2cccc(Nc3ncc4ccn(-c5cc(F)c(CN6CCOCC6)c(F)c5)c4n3)c2)C[C@H](C)N1 [Example 455, {3-[7-(3,5-Difluoro-4-morpholin-4-ylmethyl-phenyl)-7H-pyrrolo[2,3-d]pyrimidin-2-ylamino]-phenyl}-(cis-3,5-dimethyl-piperazin-1-yl)-methanone]
1.9 | ≤ 3 | Fc1cc(-n2ccc3cnc(Nc4ccnc(N5CCN(C6CC6)CC5)c4)nc32)cc(F)c1CN1CCOCC1 [Example 456, [2-(4-Cyclopropyl-piperazin-1-yl)-pyridin-4-yl]-[7-(3,5-difluoro-4-morpolin-4-ylmethyl-phenyl)-7H-pyrrolo[2,3-d]pyrimidin-2-yl]-amine]
21 | ≤ 3 | Fc1cc(-n2ccc3cnc(Nc4ccc(N5CCN(C6CC6)CC5)nc4)nc32)cc(F)c1CN1CCOCC1 [Example 457, [6-(4-Cyclopropyl-piperazin-1-yl)-pyridin-3-yl]-[7-(3,5-difluoro-4-morpholin-4-ylmethyl-phenyl)-7H-pyrrolo[2,3-d]pyrimidin-2-yl]-amine]
1.4 | ≤ 3 | C[C@@H]1CN(c2ccc(Nc3ncc4ccn(-c5cc(F)c(CN6CCCC6=O)c(F)c5)c4n3)cn2)C[C@H](C)N1 [Example 458, 1-(4-{2-[6-(cis-3,5-Dimethyl-piperazin-1-yl)-pyridin-3-ylamino]-pyrrolo[2,3-d]pyrimidin-7-yl}-2,6-difluoro-benzyl)-pyrrolidin-2-one]
104 | 5.1 | O=C(c1cccc(Nc2ncc3ccn(-c4cc(F)c(CN5CCOCC5)c(F)c4)c3n2)c1)N1CCN(C2CC2)CC1 [Example 459, (4-Cyclopropyl-piperazin-1-yl)-{3-[7-(3,5-difluoro-4-morpholin-4-ylmethyl-phenyl)-7H-pyrrolo[2,3-d]pyrimidin-2-ylamino]-phenyl}-methanone]
51 | ≤ 3 | C[C@@H]1CN(Cc2ccc(Nc3ncc4ccn(-c5cc(F)c(CN6CCCC6=O)c(F)c5)c4n3)cc2)C[C@H](C)N1 [Example 462, 1-(4-{2-[4-(cis-3,5-Dimethyl-piperazin-1-ylmethyl)-phenylamino]-pyrrolo[2,3-d]pyrimidin-7-yl}-2,6-difluoro-benzyl)-pyrrolidin-2-one]
48 | ≤ 3 | Cc1ccc(Nc2ncc3ccn(-c4cc(F)c(CN5CCCC5=O)c(F)c4)c3n2)cc1CN1CCNCC1 [Example 463, 1-{2,6-Difluoro-4-[2-(4-methyl-3-piperazin-1-ylmethyl-phenylamino)-pyrrolo[2,3-d]pyrimidin-7-yl]-benzyl}-pyrrolidin-2-one]
59 | ≤ 3 | C[C@@H]1CN(Cc2ccc(Nc3ncc4ccn(-c5ccc(S(=O)(=O)NC(C)(C)C)cc5)c4n3)cc2)C[C@H](C)N1 [Example 464, N-tert-Butyl-4-{2-[4-(cis-3,5-dimethyl-piperazin-1-ylmethyl)-phenylamino]-pyrrolo[2,3-d]pyrimidin-7-yl}-benzenesulfonamide]
3.2 | ≤ 3 | CN(C)CCN1CCN(c2ccc(Nc3ncc4ccn(-c5cc(F)c(CN6CCOCC6)c(F)c5)c4n3)cn2)CC1 [Example 465, [7-(3,5-Difluoro-4-morpholin-4-ylmethyl-phenyl)-7H-pyrrolo[2,3-d]pyrimidin-2-yl]-{6-[4-(2-dimethylamino-ethyl)-piperazin-1-yl]-pyridin-3-yl}-amine]
56 | 7.9 | CN1CCN(C(=O)c2ccc(Nc3ncc4ccn(-c5cc(F)c(CN6CCOCC6)c(F)c5)c4n3)cn2)CC1 [Example 466, {5-[7-(3,5-Difluoro-4-morpholin-4-ylmethyl-phenyl)-7H-pyrrolo[2,3-d]pyrimidin-2-ylamino]-pyridin-2-yl}-(4-methyl-piperazin-1-yl)-methanone]
14 | ≤ 3 | C[C@@H]1CN(Cc2ccc(Nc3ncc4ccn(-c5ccc6c(c5)CCC(=O)N6)c4n3)cc2)C[C@H](C)N1 [Example 468, 6-{2-[4-(cis-3,5-Dimethyl-piperazin-1-ylmethyl)-phenylamino]-pyrrolo[2,3-d]pyrimidin-7-yl}-3,4-dihydro-1H-quinolin-2-one]
17 | 61 | O=C1CNCCN1c1ccc(Nc2ncc3ccn(-c4cc(F)c(CN5CCOCC5)c(F)c4)c3n2)cn1 [Example 470, 1-{5-[7-(3,5-Difluoro-4-morpholin-4-ylmethyl-phenyl)-7H-pyrrolo[2,3-d]pyrimidin-2-ylamino]-pyridin-2-yl}-piperazin-2-one]
31.5 | 3.5 | Fc1cc(-n2ccc3cnc(Nc4ccc(CN5CCC(F)(F)C5)cc4)nc32)cc(F)c1CN1CCOCC1 [Example 471, [7-(3,5-Difluoro-4-morpholin-4-ylmethyl-phenyl)-7H-pyrrolo[2,3-d]pyrimidin-2-yl]-[4-(3,3-difluoro-pyrrolidin-1-ylmethyl)-phenyl]-amine]
92 | 3.6 | CN1CCN(Cc2ccc(Nc3ncc4ccn(-c5cc(F)c(CN6CCOCC6)c(F)c5)c4n3)cn2)CC1 [Example 472, [7-(3,5-Difluoro-4-morpholin-4-yl methyl-phenyl)-7H-pyrrolo[2,3-d]pyrimidin-2-yl]-[6-(4-methyl-piperazin-1-ylmethyl)-pyridin-3-yl]-amine]

Second part, the molecule before the results:

Structure (SMILES) | IC50 [1] [nM] | IC50 [2] [nM]
Cc1cc(Nc2ncc3ccn(-c4cc(F)c(CN5CCS(=O)(=O)CC5)c(F)c4)c3n2)cnc1N1C[C@@H](C)N[C@@H](C)C1 [Example 429] | 41 | ≤ 3
C[C@@H]1CN(c2ncc(Nc3ncc4ccn(-c5cc(F)c(CN6CCS(=O)(=O)CC6)c(F)c5)c4n3)cc2Cl)C[C@H](C)N1 [Example 430, [5-Chloro-6-(cis-3,5-dimethyl-piperazin-1-yl)-pyridin-3-yl]-{7-[4-(1,1-dioxido-thiomorpholin-4-ylmethyl)-3,5-difluoro-phenyl]-7H-pyrrolo[2,3-d]pyrimidin-2-yl}-amine] | 3.6 | ≤ 3
Fc1cc(-n2ccc3cnc(Nc4ccc5c(c4)NCC5)nc32)cc(F)c1CN1CCOCC1 [Example 431, [7-(3,5-Difluoro-4-morpholin-4-ylmethyl-phenyl)-7H-pyrrolo[2,3-d]pyrimidin-2-yl]-(2,3-dihydro-1H-indol-6-yl)-amine] | 23.5 | 3.2
Cc1cc(Nc2ncc3ccn(-c4cc(F)c(CN5CCS(=O)(=O)CC5)c(F)c4)c3n2)cc(C)c1OCCN1CCOCC1 [Example 432, [3,5-Dimethyl-4-(2-morpholin-4-yl-ethoxy)-phenyl]-{7-[4-(1,1-dioxido-thiomorpholin-4-ylmethyl)-3,5-difluoro-phenyl]-7H-pyrrolo[2,3-d]pyrimidin-2-yl}-amine] | 0.4 | ≤ 3
Cc1cc(Nc2ncc3ccn(-c4cc(F)c(CN5CCOCC5)c(F)c4)c3n2)cc(C)c1OCCN1CCOCC1 [Example 433, [7-(3,5-Difluoro-4-morpholin-4-ylmethyl-phenyl)-7H-pyrrolo[2,3-d]pyrimidin-2-yl]-[3,5-dimethyl-4-(2-morpholin-4-yl-ethoxy)-phenyl]-amine] | 6.3 | ≤ 3
Cc1ccc(Nc2ncc3ccn(-c4cc(F)c(CN5CCOCC5)c(F)c4)c3n2)cc1CN1[C@H]2CC[C@@H]1CC2 [Example 436, [3-(7-Aza-bicyclo[2.2.1]hept-7-ylmethyl)-4-methyl-phenyl]-[7-(3,5-difluoro-4-morpholin-4-ylmethyl-phenyl)-7H-pyrrolo[2,3-d]pyrimidin-2-yl]-amine] | 6.1 | ≤ 3
CN1CCN(c2ccc(Nc3ncc4ccn(-c5ccc6c(c5)CC(=O)N6C)c4n3)cn2)CC1 [Example 448, 1-Methyl-5-{2-[6-(4-methyl-piperazin-1-yl)-pyridin-3-ylamino]-pyrrolo[2,3-d]pyrimidin-7-yl}-1,3-dihydro-indol-2-one] | 7.4 | 5
Cc1ccc(Nc2ncc3ccn(-c4cc(F)c(CN5CCOCC5)c(F)c4)c3n2)cc1C(=O)N1CCN(C)CC1 [Example 451, {5-[7-(3,5-Difluoro-4-morpholin-4-ylmethyl-phenyl)-7H-pyrrolo[2,3-d]pyrimidin-2-ylamino]-2-methyl-phenyl}-(4-methyl-piperazin-1-yl)-methanone] | 24 | 3.8
Cc1ccc(Nc2ncc3ccn(-c4cc(F)c(CN5CCOCC5)c(F)c4)c3n2)cc1C(=O)N1C[C@@H](C)N[C@@H](C)C1 [Example 452, {5-[7-(3,5-Difluoro-4-morpholin-4-ylmethyl-phenyl)-7H-pyrrolo[2,3-d]pyrimidin-2-ylamino]-2-methyl-phenyl}-(cis-3,5-dimethyl-piperazin-1-yl)-methanone] | 79.5 | 6.2
C[C@@H]1CN(c2ccc(Nc3ncc4ccn(-c5cc(F)cc(F)c5)c4n3)cn2)C[C@H](C)N1 [Example 453, [7-(3,5-Difluoro-phenyl)-7H-pyrrolo[2,3-d]pyrimidin-2-yl]-[6-(cis-3,5-dimethyl-piperazin-1-yl)-pyridin-3-yl]-amine] | 36 | 4.1
C[C@@H]1CN(Cc2c(F)cc(-n3ccc4cnc(Nc5ccc(N6CCNCC6)nc5)nc43)cc2F)C[C@H](C)O1 [Example 454, {7-[4-(cis-2,6-dimethyl-morpholin-4-ylmethyl)-3,5-difluoro-phenyl]-7H-pyrrolo[2,3-d]pyrimidin-2-yl}-(6-piperazin-1-yl-pyridin-3-yl)-amine] | 53.5 | 4.5
